{
  "source": "patent US20110076240A1",
  "about": "“Antifungal and Anti-Cariogenic Cellobio-Oligosaccharides Produced by Dextransucrase” (priority 2008, published 2011)",
  "tested_on": "mutansucrase",
  "assay": "Inhibition of water insoluble glucan synthesis (absorbance at 550 nm; adherence to glass vials)",
  "type": "biochemical, Streptococcus mutans and S. sorbrinus",
  "conditions": "50 mM test substance, 1 M sucrose, 37° C., 48 h",
  "experimental": "Isolation of Oral Bacteria and Production of Mutansucrase: Oral bacteria were collected by a cotton swab from human teeth and streaked onto a brain heart infusion (BHI) agar containing 4% sucrose. The culture was grown at 37° C. until visible colonies of Streptococcus mutans and S. sorbrinus appeared. The colonies were grown in 1 L BHI at 37° C. with shaking at 150 rpm for 24-36 h to induce production of mutansucrase secreted outside the cell membrane. After incubation, the culture was harvested by centrifugation, and the supernatant with the mutansucrase was concentrated to 100 ml using a 30 K cut-off membrane filter. One unit of mutansucrase in the concentrated supernatant was defined as the amount of enzyme that catalyzes the formation of 1 μmol of fructose per minute at 37° C., pH 7.0, from 100 mM sucrose.\nThese cultures were grown in glass vials at 37° C. for 48 h.\nThe supernatants of individual reaction mixtures were discarded such that the insoluble glucans remained in the vial. To compare the amount of insoluble glucans produced, the synthesized glucans on the glass were washed with a HEPES buffer and dissolved in 0.5 N NaOH. The resulting wash was used to measure the soluble glucans. The absorbance of water insoluble glucans was measured at 550 nm. For visualization, synthesized glucans were dyed with a drop of dental disclosing solution.",
  "data": [
    {"molecule": "O=C[C@H](O)[C@@H](O)[C@H](O[C@@H]1O[C@H](CO)[C@@H](O)[C@H](O)[C@H]1O)[C@H](O)CO", "note": "[cellobiose]", "values": [
      {"measurement": "insoluble glucans produced compared to the control mixture", "value": "did not affect"}
    ]}
  ]
}
